Experimental data published in ChEMBL document CHEMBL1201862, “PubChem BioAssay data set” (2004).
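The compound was tested at five concentrations on cells cultured in 96-well plates, with a 48-hour exposure period. Here, GI50 denotes the concentration required for 50% inhibition of growth.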 The source made the active and inactive calls. Cut-off read from the data, not from the text of the source: active = GI50 up to about 1.1 µM and inactive = higher.

Key:
Test in all cases: NCI anticancer screen, dose series, 48 h
786-0 = system: 786-0
COLO 205 = system: COLO 205
DU-145 = system: DU-145
HCT-116 = system: HCT-116
HCT-15 = system: HCT-15
KM12 = system: KM12
LOX IMVI = system: LOX IMVI
M14 = system: M14
Malme-3M = system: Malme-3M
NCI-H23 = system: NCI-H23
OVCAR-3 = system: OVCAR-3
OVCAR-5 = system: OVCAR-5
SF-295 = system: SF-295
SK-MEL-28 = system: SK-MEL-28
SK-OV-3 = system: SK-OV-3
SNB-19 = system: SNB-19
T47D = system: T47D
TK-10 = system: TK-10
UO-31 = system: UO-31
NCI-H522 = system: NCI-H522

Structure (SMILES)	GI50 (786-0)	GI50 (COLO 205)	GI50 (DU-145)	GI50 (HCT-116)	GI50 (HCT-15)	GI50 (KM12)	GI50 (LOX IMVI)	GI50 (M14)	GI50 (Malme-3M)	GI50 (NCI-H23)	GI50 (OVCAR-3)	GI50 (OVCAR-5)	GI50 (SF-295)	GI50 (SK-MEL-28)	GI50 (SK-OV-3)	GI50 (SNB-19)	GI50 (T47D)	GI50 (TK-10)	GI50 (UO-31)	GI50 (NCI-H522)
CCOC(=O)CCC(NC(=O)c1ccc(Nc2nc3ccccc3nc2-c2cccs2)cc1)C(=O)OCC (configuration not stated)	32.4 µM (inactive)	25.2 µM (inactive)	29.8 µM (inactive)	28.4 µM (inactive)	21.9 µM	24.6 µM (inactive)	23.1 µM (inactive)	> 100 µM (inactive)	24.1 µM (inactive)	32.3 µM (inactive)	> 100 µM (inactive)	> 100 µM (inactive)	19.4 µM (inactive)	26.3 µM (inactive)	28.6 µM (inactive)	29.2 µM (inactive)	12 µM (inactive)	21.2 µM (inactive)	30.9 µM (inactive)	
Cn1c(COC(=O)NC2CCCCC2)c(COC(=O)NC2CCCCC2)c2ccc3ccccc3c21	13.3 µM (inactive)	33.2 µM (inactive)		33 µM (inactive)	48.1 µM	30 µM (inactive)	23.3 µM (inactive)	67.3 µM (inactive)	36.4 µM (inactive)	21.8 µM (inactive)	58.3 µM (inactive)	43.5 µM (inactive)	41 µM (inactive)		> 100 µM (inactive)	55.7 µM (inactive)	50.4 µM (inactive)	33.7 µM (inactive)	34 µM (inactive)	16.2 µM (inactive)
Cc1ccc(NC(=O)/C(=N/N(C)C)C(C2OC(=O)c3ccccc32)[N+](=O)[O-])cc1 (configuration not stated)	> 100 µM (inactive)			> 100 µM (inactive)	> 100 µM	> 100 µM (inactive)	> 100 µM (inactive)	> 100 µM (inactive)		> 100 µM (inactive)	> 100 µM (inactive)	> 100 µM (inactive)	> 100 µM (inactive)	> 100 µM (inactive)	> 100 µM (inactive)		> 100 µM (inactive)	> 100 µM (inactive)	> 100 µM (inactive)	
CCSc1[nH]c(NC(=S)NC(=O)c2ccccc2Cl)c(C(N)=O)c1C(N)=O	> 10 µM (inactive)	> 10 µM (inactive)	> 10 µM (inactive)		> 10 µM	> 10 µM (inactive)	> 10 µM (inactive)	> 10 µM (inactive)	> 10 µM (inactive)	> 10 µM (inactive)			> 10 µM (inactive)	> 10 µM (inactive)	> 10 µM (inactive)		> 10 µM (inactive)	> 10 µM (inactive)		
CCOC(=O)c1cn(-c2ccccc2)c(=S)n2c1nc1ccccc12	43.4 µM (inactive)	30.3 µM (inactive)	63.2 µM (inactive)	42.6 µM (inactive)	41.5 µM	33.7 µM (inactive)	> 67.1 µM (inactive)	38.6 µM (inactive)		45.7 µM (inactive)	52.2 µM (inactive)	> 100 µM (inactive)	71.8 µM (inactive)	28.2 µM (inactive)	> 100 µM (inactive)	> 66.2 µM (inactive)	80 µM (inactive)	96.8 µM (inactive)	7.67 µM (inactive)	
CCNc1nc(N)c(C(=O)c2ccc(Cl)cc2)s1	39.9 µM (inactive)	18.9 µM (inactive)	32.7 µM (inactive)	27.9 µM (inactive)	26.9 µM	30.3 µM (inactive)	40.1 µM (inactive)	44.6 µM (inactive)	> 100 µM (inactive)	45.6 µM (inactive)	19.9 µM (inactive)	32.7 µM (inactive)		76.6 µM (inactive)	29.9 µM (inactive)	18.9 µM (inactive)	33 µM (inactive)	14.3 µM (inactive)	15 µM (inactive)	
